Experimental data reported in PubChem BioAssay AID540258 (Broad Institute, 2011).
Calls of active or inactive are those of the source.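 Rule for the calls: active = fitted curve reaching 40% activation at or below the top valid dose tested; inconclusive = flat curve at 30 to 70% activation, or poor fit; inactive = the rest.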

System: SK-MEL-5 TRPM1 promoter luciferase reporter, 24 h
Assay: activation of TRPM1 promoter luciferase in melanoma cells – SK-MEL-5 cells, cherry-pick samples, dose response (AID 540258);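 note: potency for activators that raise TRPM1 promoter luciferase signal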

SMILES | AC40
O=C(CC1CCCC1)Nc1ccc(Br)cc1 | 11.6 µM
O=S(=O)(c1ccccc1)n1ccc(-c2cnc(-c3ccccc3)s2)n1 | 7.87 µM
COc1ccc(-c2cn3nc(C)c(C)nc3n2)cc1OC | 5.89 µM
CC(C)Cc1cc(C(=O)Nc2ccc(Br)cc2)no1 | 1.8 µM
CN(/N=C/c1ccc2c(c1)OCO2)c1ccccc1 | 1.34 µM
Cc1ccc(NC(=O)Nc2ccc3oc(C)nc3c2)cc1 | 1.39 µM
Brc1ccc(OCc2cn3ccccc3n2)cc1 | 0.592 µM
CC(NC(=O)c1cc(COc2ccccc2)on1)c1nccs1 (stereo not drawn) | 0.721 µM
Brc1ccccc1-n1nnc(-c2nccs2)n1 | 2.52 µM
COc1ccc2cc(-c3csc(-c4cccnc4)n3)ccc2c1 | 2.09 µM
Cc1cc(C(=O)CN2C(=O)NC3(CCCCC3C)C2=O)c(C)n1Cc1cccs1 (stereo not drawn) | 8.17 µM
CCc1cccc2c(C(=O)CN3C(=O)NC4(CCCCCC4)C3=O)c[nH]c12 | > 35 µM (inactive)
Cc1ccc(CONC(=O)c2ccc(C)cc2)cc1 | 6.05 µM
Cc1ccc(OCc2cc(C(=O)N3CC4C[C@@H]5CC3C[C@H](C4)C5)no2)cc1C | 2.61 µM
COC(=O)c1ccc(Nc2ncnc3sccc23)cc1 | 7.47 µM
CC(C)(C)c1ccc(C(=O)Nc2ccc(F)cc2)s1 | 0.374 µM
COc1ccc2c(c1)oc(=O)c1cc(OC)ccc12 | 3.88 µM
CN(c1ccccc1)c1nc2ccsc2c(=O)s1 | 5.15 µM
Nc1ccccc1C#Cc1ccccc1 | 0.777 µM
C/C(=N\Nc1ccccn1)c1ccc(C(C)C)cc1 | 4.34 µM
Cn1cc(Br)c(C(=O)Nc2sc3c(c2C(N)=O)CCCC3)n1 | 10.4 µM
COc1ccc(N2C(=O)c3ccccc3NC23CCCCC3)cc1 | 1.62 µM
COc1cccc(-c2cc(C(=O)Nc3ccccc3SC)no2)c1 | > 35 µM (inactive)

SMILES | AC40
Brc1ccc(/C=N/Nc2ccccc2)cc1 | 15.4 µM
COc1cc(CNCc2ccccn2)ccc1OCc1ccc(Cl)c(Cl)c1 | 9.74 µM
COc1ccc(C(=O)NCCn2ccc3ccccc32)cc1 | 1.66 µM
CC(C)(C)C(=O)c1sc(Nc2ccccc2)nc1N | 1.68 µM
O=C(Nc1ccc(O)cc1)c1cc2ccccc2c(=O)s1 | 2.3 µM
NC(=O)c1ccc(-c2noc(-c3cccc(Cl)c3)n2)cc1 | 3.8 µM
Cc1nc2ccc(NC(=O)Cc3c(F)cccc3Cl)cc2s1 | 3.66 µM
CCCCn1cnc2sc(-c3ccccc3)cc2c1=O | 0.812 µM
Cn1c(SCc2ccccc2Cl)nc2ccccc21 | 0.794 µM
CC1(C)CN=c2s/c(=C\c3ccc(Cl)cc3)c(=O)n2C1 | 1.21 µM
COc1ccc(-c2cn3cccc(C)c3n2)cc1F | 0.565 µM
c1ccc(CCn2nnc3ccccc32)cc1 | 0.867 µM
CN(C)c1ccnc2sc3c(SCc4ccc(Cl)cc4)ncnc3c12 | 4.29 µM
COc1ccc(-c2nnn(Cc3ccccc3F)n2)cc1 | 2.14 µM
c1ccc(Nc2ccc(Nc3ccccc3)cc2)cc1 | 23.7 µM
Cc1ccc(CNc2ccc3c(c2)ncn3C(C)C)cc1 | 2.63 µM
CCc1ccc(N2Cc3ccccc3C2)cc1 | 2.25 µM
COc1cc(OC)c2c(-c3cccc(/C=C/c4ccc(F)cc4)c3)cc(=O)oc2c1 | 6.95 µM
COc1cc(/C=C/c2noc(-c3ccccc3O)n2)ccc1OC(C)=O | 1.62 µM
O=C(Nc1ccccc1)O/N=C/c1ccc(F)cc1 | 0.883 µM
Cc1ccccc1-c1nc2cc(Cl)ccc2o1 | 8.56 µM
FC(F)(F)c1cnc(-c2cnc(-c3cccnc3)nc2)c(Cl)c1 | 3.02 µM
Oc1ccc(N=Nc2ccccc2)cc1 | 3.98 µM

SMILES | AC40
Cc1ccc(N(C)/N=C/c2ccc(Cl)cc2Cl)nn1 | 34.2 µM
Cc1cc2cc(OCc3ccccc3)ccc2n1C | 0.737 µM
Cc1ccc(C(=O)Nc2ncccc2S(=O)(=O)c2ccccc2)cc1 | 2.94 µM
Cc1cccc(-c2cc(N)n(-c3ccccc3)n2)c1 | 0.712 µM
Nc1nc2ccccc2cc1-c1cccs1 | 6.26 µM
c1csc(-c2noc(COc3ccc4c(c3)CCCC4)n2)c1 | 2.14 µM
Cc1ccc(Nc2nnc(-c3ccccc3N)o2)cc1C | 1.59 µM
COc1cccc(/C(C)=N/N=C(\C)c2cccc(OC)c2)c1 | 3.27 µM
N#Cc1ccc(C(=O)NC2CCCCCCC2)cc1 | 3.62 µM
CN(C)c1ccc(CSc2ccccc2)cc1 | 1.83 µM
CCCC(=O)Nc1nc(-c2ccccc2)ns1 | 4.23 µM
CC1CCN(C(=O)Nc2ccc3nsnc3c2)CC1 | 13.7 µM
O=C(NCCc1ccc(O)cc1)c1ccc(Cl)cc1 | 2.89 µM
Oc1cccc(-c2nc3ccc4ccccc4c3c3c2CCC3)c1 | 3.02 µM
Cc1cc2c([nH]c3ccccc32)c2c1OC(C)(C)C=C2 | 3.8 µM
Cc1ccc(NC(=O)CC(=O)c2ccccc2)cc1C | 3.33 µM
Cc1ccc(O)c(-n2nc3ccccc3n2)c1 | 1.21 µM
CCc1ccc(C(=O)NC2CCCCC2)s1 | 2.95 µM
O=C(CCNc1ccccc1)c1ccc2c(c1)OCO2 | 1.12 µM
Cc1ccc(C(=O)O/N=C(\N)c2ccc(Br)cc2)cc1 | 7.84 µM
O=C(NOCc1ccccc1)OCc1ccccc1 | 6.91 µM
COc1ccccc1-c1cnn2c(NC3CCCC3)cc(C)nc12 | 4.09 µM
O=C(N/N=C/c1ccccc1C(F)(F)F)c1ccc(O)cc1 | 3.44 µM

SMILES | AC40
COc1ccc(-n2nc(C(=O)NCC(=O)N3CCN(c4ccccc4)CC3)c3ccccc3c2=O)c(OC)c1 | 4.77 µM
Cn1cc(Br)c(C(=O)N/N=C/c2cc3c(cc2Cl)OCO3)n1 | 9.65 µM
COc1ccc2sc(NCc3ccccc3)nc2c1 | 1.98 µM
c1ccn(-c2ccc(-c3ccn[nH]3)cc2)c1 | 2.31 µM
CCC(=O)NCCc1nc2cc(NC(=O)c3ccc(Cl)cc3)ccc2n1C | 0.755 µM
COc1ccccc1Nc1nc(C)cs1 | 22.6 µM
COc1ccccc1C(=O)NCCC(=O)NC1CCC(C)CC1 (stereo not drawn) | 3.62 µM
CCCc1cc(C(=O)Nc2ccc(C(=O)OC)cc2)cs1 | 16.2 µM
COc1ccccc1NC(=O)Nc1nc2ccc(S(N)(=O)=O)cc2s1 | 1.57 µM
CC(C)c1ccc(CNc2ncc(Br)cn2)cc1 | 3.76 µM
COc1ccc(Oc2ncnc3sccc23)cc1 | 6.05 µM
COc1ccc2cc(CCNC(=O)c3cccs3)c(=O)[nH]c2c1 | 1.95 µM
O=C1OC(c2ccccc2)=C/C1=C/N1CCCCC1 | 2.12 µM
C=CCSc1nncn1/N=C/c1ccc(OC)cc1 | 1.41 µM
O=C(NCCSc1ccccn1)c1ccc(Cl)cc1Cl | 0.959 µM
O=S(=O)(c1cccs1)N1CCCc2cccc(O)c21 | 7.11 µM
CCS(=O)(=O)N1CCN(c2nc(-c3ccccc3)cs2)CC1 | 33.3 µM
O=C(NC1CC1)c1sc2cc(Cl)ccc2c1Cl | 4.59 µM
COc1ccc(/C=C2\CCn3c2nc2ccccc2c3=O)cc1OC | 0.899 µM
CCc1ccc(C(=O)N/N=C(\C)c2cccnc2)s1 | 8.9 µM
Cc1cccc(C(=O)Nc2ccn(C)n2)c1 | 24.4 µM
Cc1cccc(NC(=O)c2onc3c2CCCC3)c1C | 1.62 µM
Cc1ccc(NC(=O)C2C3/C=C\CCCCC32)cc1 (stereo not drawn) | 4.54 µM

SMILES | AC40
O=C(NCc1ccccn1)Nc1ccc(Br)cc1Cl | 14.3 µM
Cc1ccc(Sc2cnc3ccccc3n2)cc1 | 1.43 µM
Cc1cccc(-c2nnc3sc(-c4ccccc4)nn23)c1 | 12.2 µM
Cc1cc(CN(C)C(=O)c2ccc3nc(Cc4ccccc4F)oc3c2)on1 | 14.1 µM
CC1(C)CNC(=O)c2sc(NC(=O)c3ccccc3)nc2C1 | 21.9 µM
COc1cccc(C2Nc3ccccc3C(=O)N2c2ccc(F)cc2)c1O (stereo not drawn) | 23.8 µM
CC(=O)c1sc(N/N=C/c2cccc(O)c2)nc1C | 2.67 µM
Cn1c(C(=O)NCCc2c[nH]c3ccccc23)cc2sccc21 | 3.4 µM
COc1ccc(-c2cc(=NCCC(=O)O)c3cc(C)ccc3o2)cc1 | 3.33 µM
Cc1ccc(NC(=O)c2sc3nc(C)cc(C)c3c2N)cc1 | 0.205 µM
CCC(C)NC(=O)c1cn(-c2cccc(C)n2)cn1 (stereo not drawn) | 10.6 µM
CCCN(Cc1ccc(C)cc1)C(=O)c1ccc(CNS(=O)(=O)c2ccc(C(C)=O)cc2)cc1 | > 35 µM (inactive)
N#Cc1ccsc1NC(=O)CCc1ccccc1 | 9.77 µM
CC(C)Nc1oc(-c2cccc3ccccc23)nc1C#N | 9.14 µM
COc1cccc(NC(=O)c2csc3c2CCCC3)c1 | 4.8 µM
Cc1cc(NC(=O)c2ccc(Cl)cc2)no1 | 2.63 µM
CC/C(=N\NC(=O)c1csc(C)c1C)c1cccs1 | 0.733 µM
COc1ccc(NC(=O)C2Cc3ccccc3O/C2=N\O)cc1 (stereo not drawn) | 17 µM
O=C(Cc1ccccc1)Nc1nc(-c2cccs2)cs1 | 14.7 µM
Cc1ccsc1C(=O)OCc1nnc(-c2ccccc2)o1 | 7.44 µM
Cc1nc(N2CCN(S(=O)(=O)c3ccccc3)CC2)c2cc(-c3ccccc3)sc2n1 | 22.9 µM
COCc1ccc(-c2c(-c3ccc(OC)cc3)oc(=O)c3cc(OC)c(OC)cc23)cc1 | 3.05 µM
CC(C)(C)n1ncc2c(=O)n(CC(=O)c3ccccc3)cnc21 | 2.87 µM

SMILES | AC40
c1ccc2nc(-c3nccs3)ccc2c1 | 8.94 µM
COC(=O)Cc1csc(Nc2ccccc2Cl)n1 | 6.3 µM
COC(=O)c1ccc(CSC2=NCCS2)cc1 | 3.38 µM
O=C(N/N=C\c1cccc(Cl)c1)c1n[nH]c2c1CCCC2 | 0.504 µM
COc1cc(OC)cc(-c2cc3cc(F)ccc3cn2)c1 | 1.71 µM
c1cnc(Nc2nc(-c3ccc4ccccc4c3)cs2)nc1 | 0.516 µM
CCCN1C(=O)C(=O)N(CC(=O)c2cc(C)n(C3CC3)c2C)C1=O | 24.8 µM
Fc1ccccc1CSc1nnc(-c2ccccc2)o1 | 0.935 µM
CCCCC(=O)Nc1sc2c(c1C#N)CC(C)(C)OC2 | 5.29 µM
C=CCC1(CC=C)CCCN1C(=O)C1CCC(=O)N(CCc2ccccc2)C1 (stereo not drawn) | 7.52 µM
CCN(CC)C(=O)OCc1c(-c2ccccc2)ncc2ccccc12 | 11.9 µM
O=C(CCCc1ccccc1)c1ccccc1 | 0.326 µM
CC1CCc2sc(C(=O)Nc3ccc(C(N)=O)cc3)cc2C1 (stereo not drawn) | 15.4 µM
Oc1ccc(-c2nccc(-c3ccccn3)n2)cc1 | 4.35 µM
Cn1c2ccccc2c(=O)c2ccc(-c3ccc4c(c3)OCO4)cc21 | 0.851 µM
Oc1[nH]c2ccccc2c1C=Nc1ccccc1 | 5.55 µM
O=C(Cn1c(/C=C/c2ccccc2)nc2ccccc21)Nc1ccc(F)cc1 | 6.45 µM
C/C(=N/OCc1ccc(Br)cc1)c1ccccn1 | 0.336 µM
